Assay [1] deals with T1, AR protein (Homo sapiens, UniProt P10275).
T1 construct: VCap is a human prostate cancer cell line purchased from ATCC; host or cells: VCaP human prostate cancer cells
T1 sequence (P10275 1-920): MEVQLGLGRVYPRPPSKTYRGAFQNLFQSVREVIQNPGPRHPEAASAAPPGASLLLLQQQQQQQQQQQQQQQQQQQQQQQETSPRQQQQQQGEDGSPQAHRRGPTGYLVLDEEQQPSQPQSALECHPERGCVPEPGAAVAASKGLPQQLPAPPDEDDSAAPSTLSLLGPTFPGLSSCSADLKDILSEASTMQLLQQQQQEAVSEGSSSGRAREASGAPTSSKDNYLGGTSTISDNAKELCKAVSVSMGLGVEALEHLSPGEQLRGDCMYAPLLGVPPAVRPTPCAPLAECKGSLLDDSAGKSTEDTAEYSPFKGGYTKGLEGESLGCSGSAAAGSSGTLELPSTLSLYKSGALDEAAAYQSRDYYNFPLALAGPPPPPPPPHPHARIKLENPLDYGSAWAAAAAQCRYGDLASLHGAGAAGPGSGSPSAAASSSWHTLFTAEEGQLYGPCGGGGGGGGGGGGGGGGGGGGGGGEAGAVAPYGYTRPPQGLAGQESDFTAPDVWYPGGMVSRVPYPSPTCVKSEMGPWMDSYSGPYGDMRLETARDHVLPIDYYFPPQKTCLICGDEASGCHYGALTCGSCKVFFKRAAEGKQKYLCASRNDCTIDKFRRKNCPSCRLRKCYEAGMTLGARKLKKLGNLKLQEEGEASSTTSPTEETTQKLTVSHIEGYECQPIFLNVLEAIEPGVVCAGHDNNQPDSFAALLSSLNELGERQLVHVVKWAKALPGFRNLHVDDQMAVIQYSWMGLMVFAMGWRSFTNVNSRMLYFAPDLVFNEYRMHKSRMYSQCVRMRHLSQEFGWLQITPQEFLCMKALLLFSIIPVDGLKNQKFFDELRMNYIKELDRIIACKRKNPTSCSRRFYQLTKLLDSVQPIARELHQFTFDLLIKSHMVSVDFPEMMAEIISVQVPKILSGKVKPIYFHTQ
In words: Detection of AR degradation in VCaP cells (automated western blot). The class given is cell-based. The settings on record: degradation of AR protein in VCaP cells, 24 hours incubation; read-out: DC50. In short, it runs like this: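 VCaP cells (5 × 10^5/well) were treated with compounds at various concentrations for 24 h at 37°C. Lysate AR level was quantified by automated capillary western blot, normalised to β-actin and expressed relative to solvent control. DC50 came from four-parameter nonlinear regression; degradation rate = 100 − AR%.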

For assay [2], the system named is Human CD34+ Hematopoietic stem cells. Briefly: Human CD34+ hematopoietic stem cell proliferation inhibition experiment. The class given is cell-based. The settings on record: 168 h, inhibitory activity against the proliferation of CD34+ hematopoietic stem cells, 7 days. On the procedure: Human CD34+ Hematopoietic stem cells (TPCS, Cat.hmPB34-P-2CW) are CD34-positive stem cells obtained from human PBMCs through immunomagnetic bead sorting. The culture conditions are as follows: DPBS (Gibco, Cat.14190-144) +StemSpan SFEM II ([…], Cat.9655) +1X StemSpan CD34+ Expansion Supplement ([…], Cat.2691). First, 40 nL of DMSO, the positive reference compound Talazoparib, or the test compounds were respectively added to a 384-well plate (Corning, Cat. 3764). Then, a cell suspension was added at 400 cells per well in 40 µL of medium, resulting in final concentrations of 0.1% DMSO, 3 µM Talazoparib, or various concentrations of the compounds in each well. The plate was centrifuged at room temperature at 1000 rpm for 1 minute, followed by incubation for 7 days in a 37°C, 5% CO2 incubator. Following incubation, 20 µL of CellTiter-Glo Reagent (Promega, Cat. G7573) was directly added to each well, and the plate was centrifuged at room temperature at 1000 rpm for 1 minute, followed by incubation for 20 minutes in the dark. Following incubation, the chemiluminescent signal (CFU) was read and recorded using an Envision multimode microplate reader (PerkinElmer, Cat. 2104). The cell proliferation inhibition rate at various compound concentrations was calculated according to Equation (3), where CFUhigh control represents the average signal value of the DMSO group, CFUlow control represents the average signal value of the Talazoparib group, and CFUcompound represents the average signal value of the compound-treated group. The processed data obtained from Equation (3) were analysed using XLfit or GraphPad Prism software, and a four-parameter curve fitting model was applied to calculate the compound concentration corresponding to a 50% inhibition rate, i.e., the IC50 value. Inhibition% = (CFUhigh control−CFUcompound)/(CFUhigh control−CFUlow control) × 100% [formula]

In the case of `CC1(C)[C@H](NC(=O)c2ccc(N3CCC(CN4CCN5c6cc(F)c(C7CCC(=O)NC7=O)cc6CC[C@H]5C4)CC3)cc2)C(C)(C)[C@H]1Oc1ccc(C#N)c2ncccc12` (some centres unmarked) [Compound 31], the DC50 (commonly the concentration at which degradation of the target reaches its halfway point) in assay [1] is less than 100 nM. Besides, the IC50 (usually the concentration at which inhibition is half-maximal) in assay [2] was more than 10 µM.

For the origin of these results see EP4763845A1, “CYANO AROMATIC RING DERIVATIVE AND PHARMACEUTICAL USE THEREOF” (Haisco Pharmaceutical Group Co., Ltd., priority 2023, dated 2025).
